Results: DBAASP
In brackets after ≈: the same amount, converted by molar mass. Values belong to the compound of their own block, whether it stands above or below them.

Assays:
Assay in all cases: ≥ marks a high value that may be exact or a test limit, other limits are often not marked, values filed in µg/mL are converted to µM
[1] = test system: Cryptococcus neoformans ATCC 34881
[2] = test system: Saccharomyces cerevisiae ATCC 44774
[3] = test system: Bacillus subtilis ATCC 62037
[4] = test system: Candida albicans ATCC 10231
[5] = test system: Salmonella enterica subsp. enterica serovar Enteritidis ATCC 13076
[6] = test system: Staphylococcus aureus ATCC 15752
[7] = test system: Pseudomonas putida ATCC 17426
[8] = test system: Streptococcus mutans ATCC 25175
[9] = test system: Escherichia coli ATCC 27325
[10] = test system: Escherichia coli KCTC 1682
[11] = test system: Pseudomonas aeruginosa KCTC 1637
[12] = test system: Staphylococcus aureus KCTC 1621
[13] = test system: Aspergillus fumigatus KCTC 4165
[14] = test system: Salmonella typhimurium KCTC 1926
[15] = test system: Candida albicans TIMM 1768
[16] = test system: Streptococcus pyogenes KCTC 3096
[17] = test system: Bacillus subtilis KCTC 1918
[18] = test system: Micrococcus luteus ATCC 10240
[19] = test system: Escherichia coli ATCC 25922
[20] = test system: Bacillus subtilis ATCC 6633
[21] = test system: Shigella dysenteriae ATCC 9752
[22] = test system: Salmonella enterica subsp. enterica serovar Typhimurium ATCC 14028
[23] = test system: Staphylococcus aureus ATCC 6538P
[24] = test system: Staphylococcus aureus TK784
[25] = test system: Pseudomonas aeruginosa ATCC 27853
[26] = test system: Klebsiella pneumoniae ATCC 10031
[27] = test system: Staphylococcus epidermidis ATCC 12228
[28] = test system: Bacillus subtilis DSM 347
[29] = test system: Escherichia coli DSM 10233
Escherichia coli BL21AI = test system: Escherichia coli BL21AI
[30] = test system: Klebsiella pneumoniae DSM 681
Escherichia coli 1103 = test system: Escherichia coli 1103
[31] = test system: Trichophyton mentagrophytes IFO 5466
Pseudomonas aeruginosa = test system: Pseudomonas aeruginosa
[32] = test system: Staphylococcus aureus KO-4
[33] = test system: Trypanosoma brucei brucei GUT Tat3.1
[34] = test system: Pseudomonas aeruginosa CCARM 2109
[35] = test system: Pseudomonas aeruginosa CCARM 2095
[36] = test system: Staphylococcus epidermidis KCTC 1917
[37] = test system: Bacillus subtilis KCTC 3068
[38] = test system: Staphylococcus aureus CCARM 3543
[39] = test system: Staphylococcus aureus CCARM 3001

SMILES: CC(C)[C@H](NC(=O)[C@H](CCCCN)NC(=O)CNC(=O)CNC(=O)[C@H](CCC(N)=O)NC(=O)[C@H](CCCCN)NC(=O)CNC(=O)[C@H](CCCN=C(N)N)NC(=O)CNC(=O)[C@H](C)N)C(=O)N[C@@H](CCCN=C(N)N)C(=O)N[C@@H](C)C(=O)N[C@@H](CCCCN)C(=O)N[C@@H](C)C(=O)N[C@@H](CCCCN)C(=O)N[C@H](C(=O)N[C@@H](CCCN=C(N)N)C(=O)N[C@@H](CO)C(=O)N[C@@H](CO)C(=O)O)[C@@H](C)O [AGRGKQGGKVRAKAKTRSS]
MIC [1]: 4.12 µM (≈ 8 µg/mL)
MIC [2]: 4.12 µM (≈ 8 µg/mL)
MIC [3]: 4.12 µM (≈ 8 µg/mL)
MIC [4]: 8.23 µM (≈ 16 µg/mL)
MIC [5]: 8.23 µM (≈ 16 µg/mL)
MIC [6]: 8.23 µM (≈ 16 µg/mL)
MIC [7]: 2.06 µM (≈ 4 µg/mL)
MIC [8]: 8.23 µM (≈ 16 µg/mL)
MIC [9]: 2.06 µM (≈ 4 µg/mL)

SMILES: CC[C@H](C)[C@H](NC(=O)[C@H](CCCCN)NC(=O)[C@H](CCCCN)NC(=O)[C@H](CC(C)C)NC(=O)[C@H](CCCCN)NC(=O)[C@H](CCC(=O)O)NC(=O)CN)C(=O)NCC(=O)N[C@@H](CCCCN)C(=O)N[C@@H](CCCCN)C(=O)N[C@H](C(=O)N[C@@H](CCCCN)C(=O)N[C@@H](CC(N)=O)C(=O)N[C@@H](Cc1ccccc1)C(=O)N[C@@H](Cc1ccccc1)C(=O)N[C@@H](CCC(N)=O)C(=O)N[C@@H](CCCCN)C(=O)N[C@@H](CC(C)C)C(=O)O)[C@@H](C)CC [GEKLKKIGKKIKNFFQKL]
MIC [10]: 12.5 µM (≈ 26.8 µg/mL)
MIC [11]: 3.12 µM (≈ 6.7 µg/mL)
MIC [12]: 12.5 µM (≈ 26.8 µg/mL)
MIC [13]: 25 µM (≈ 53.7 µg/mL)
MIC [14]: 6.25 µM (≈ 13.4 µg/mL)
MIC [15]: 25 µM (≈ 53.7 µg/mL)
MIC [16]: 25 µM (≈ 53.7 µg/mL)
MIC [17]: 12.5 µM (≈ 26.8 µg/mL)

SMILES: CC[C@H](C)[C@H](NC(=O)[C@@H]1CCCN1C(=O)[C@H](CCC(N)=O)NC(=O)[C@@H]1CCCN1C(=O)[C@H](CCCN=C(N)N)NC(=O)[C@@H]1CCCN1C(=O)[C@@H]1CCCN1C(=O)[C@H](Cc1cnc[nH]1)NC(=O)[C@@H]1CCCN1C(=O)[C@H](CCCN=C(N)N)NC(=O)[C@@H](N)CC(C)C)C(=O)N[C@@H](Cc1ccc(O)cc1)C(=O)N[C@H](C(=O)N1CCC[C@H]1C(=O)N[C@@H](CCCN=C(N)N)C(=O)N[C@@H](CC(N)=O)C(=O)N[C@@H](CC(N)=O)C(=O)NCC(N)=O)C(C)C [LRPHPPRPQPIYVPRNNG]
MIC [28]: ≥ 59.3 µM
MIC [18]: ≥ 59.3 µM
MIC [29]: ≥ 59.3 µM
MIC (Escherichia coli BL21AI): ≥ 59.3 µM
MIC [30]: ≥ 59.3 µM
MIC (Escherichia coli 1103): ≥ 59.3 µM

SMILES: CC[C@H](C)[C@H](NC(=O)[C@H](CCCN=C(N)N)NC(=O)[C@H](CC(C)C)NC(=O)[C@H](Cc1ccc(O)cc1)NC(=O)[C@H](CC(C)C)NC(=O)[C@@H](N)CCCN=C(N)N)C(=O)NCC(=O)N[C@@H](CCCN=C(N)N)C(=O)N[C@@H](CCCN=C(N)N)C(N)=O [RLYLRIGRR]
MIC [31]: 20.8 µM (≈ 25 µg/mL)
MIC (Pseudomonas aeruginosa): 333 µM (≈ 400 µg/mL)
MIC [32]: ≥ 499 µM
MIC [33]: ≥ 205 µM

Results, then the compound that gave them:

MIC [18]: 26.7 µM (≈ 40 µg/mL)
MIC [19]: 13.3 µM (≈ 20 µg/mL)
MIC [20]: 13.3 µM (≈ 20 µg/mL)
MIC [21]: ≥ 53.4 µM
MIC [22]: > 53.4 µM
MIC [23]: 6.67 µM (≈ 9.99 µg/mL)
MIC [24]: ≥ 53.4 µM
MIC [25]: 26.7 µM (≈ 40 µg/mL)
MIC [26]: ≥ 53.4 µM
MIC [27]: 26.7 µM (≈ 40 µg/mL)
SMILES: CC(C)C[C@H](NC(=O)[C@H](Cc1c[nH]c2ccccc12)NC(=O)[C@H](CCCCN)NC(=O)[C@H](CCCCN)NC(=O)[C@H](CC(C)C)NC(=O)[C@H](Cc1c[nH]c2ccccc12)NC(=O)[C@H](CCCCN)NC(=O)[C@H](CCCCN)NC(=O)[C@@H](N)CC(C)C)C(=O)N[C@@H](CCCCN)C(=O)N[C@@H](CCCCN)C(N)=O [LKKWLKKWLKK]

MIC [34]: 16 µM (≈ 29.2 µg/mL)
MIC [35]: 16 µM (≈ 29.2 µg/mL)
MIC [10]: 8 µM (≈ 14.6 µg/mL)
MIC [36]: 2 µM (≈ 3.65 µg/mL)
MIC [11]: 8 µM (≈ 14.6 µg/mL)
MIC [12]: 8 µM (≈ 14.6 µg/mL)
MIC [37]: 4 µM (≈ 7.3 µg/mL)
MIC [38]: 4 µM (≈ 7.3 µg/mL)
MIC [14]: 4 µM (≈ 7.3 µg/mL)
MIC [39]: 8 µM (≈ 14.6 µg/mL)
SMILES: NC(=O)[C@H](CCCN=C(N)N)NC(=O)[C@H](CCCN=C(N)N)NC(=O)[C@H](Cc1c[nH]c2ccccc12)NC(=O)[C@H](CCCN=C(N)N)NC(=O)[C@H](CCCN=C(N)N)NC(=O)[C@H](Cc1c[nH]c2ccccc12)NC(=O)[C@H](CCCN=C(N)N)NC(=O)[C@H](CCCN=C(N)N)NC(=O)[C@H](Cc1c[nH]c2ccccc12)NC(=O)[C@H](CCCN=C(N)N)NC(=O)[C@@H](N)CCCN=C(N)N [RRWRRWRRWRR]
